From patent US20260015358A1, “BICYCLIC DERIVATIVES, COMPOSITIONS AND USES THEREOF” (Danatlas Pharmaceuticals Co., Ltd., priority 2023, published 2026)
pIC50: −log10 of the molar value.

Target: WRN [UniPro: Q14191 (WRN_HUMAN), N500-C946] (Homo sapiens (Human), UniProt Q14191)
Test: WRN unwinding assay (FORKF DNA, fluorescence)
Type: biochemical
Conditions: Table 14
Method: WRN unwinding assay was initiated to evaluate potential inhibitory effect of compounds for WEN helicase activity. WRN [UniPro: Q14191 (WRN_HUMAN), N500-C946] was expressed and purified in insect system and stored at −80° C. in aliquots. […] Compounds dissolved in DMSO (Sigma, D8418) were plated into a 96-well intermediate plate (BioFil, VWP-032-096) for 3-fold serial titration for 10 points using DMSO, and well-to-well transfer the titrated compounds into another 96-well intermediate plate including assay buffer in advance. Shake the 96-well intermediate plate at 600 rpm for 10 min. to fully mix. Specifically, a 3× working mixture of WRN was diluted to a concentration of 60 nM in assay buffer. […] After centrifuging at 1000 rpm and shaking at 500 rpm, the assay plate was pre-incubated for 30 min. Then, […] 3×FORKF DNA and ATP working mixture was dispensed into assay plate. Plate was sealed, centrifuged and incubated for an additional 40 min. at 25° C. […] Each concentration of compound was tested in duplicates in the assay plate. Average fluorescence signal of high control (Wells with 1% DMSO) was calculated as High Control (HC). Average fluorescence signal of low control (Wells with no WRN protein) was calculated as Low control (LC).
IC50 values were determined by fitting the data to the standard 4 parameters with Hill Slope using GraphPad Prism software.

Chain of WRN [UniPro: Q14191 (WRN_HUMAN), N500-C946] (Q14191 500-946): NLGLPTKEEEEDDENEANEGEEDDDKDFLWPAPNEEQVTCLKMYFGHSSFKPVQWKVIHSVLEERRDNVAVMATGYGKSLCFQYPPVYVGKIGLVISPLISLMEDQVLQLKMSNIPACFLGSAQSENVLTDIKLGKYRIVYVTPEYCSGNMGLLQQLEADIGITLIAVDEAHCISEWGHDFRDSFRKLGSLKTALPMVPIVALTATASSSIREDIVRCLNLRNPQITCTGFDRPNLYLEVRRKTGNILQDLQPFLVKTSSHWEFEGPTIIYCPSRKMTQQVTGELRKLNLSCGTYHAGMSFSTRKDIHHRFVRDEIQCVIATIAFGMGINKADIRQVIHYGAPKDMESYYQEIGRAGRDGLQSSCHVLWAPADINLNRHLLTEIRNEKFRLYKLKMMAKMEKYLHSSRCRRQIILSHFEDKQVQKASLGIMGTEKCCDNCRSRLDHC

**Q.** With `CCc1c(N2CCN(C(=O)N(C)C)CC2)c(=O)n2nc(C3=CCOCC3)nc2n1CC(=O)Nc1ccc(C(F)(F)F)cc1Cl` [Example 10, 4-(4-(2-((2-Chloro-4-(trifluoromethyl)phenyl)amino)-2-oxoethyl)-2-(3,6-dihydro-2H-pyran-4-yl)-5-ethyl-7-oxo-4,7-dihydro-[1,2,4]triazolo[1,5-a]pyrimidin-6-yl)-N,N-dimethylpiperazine-1-carboxamide] as the compound, how does the pIC50 read?
**A.** < 6.00

**Q.** How did the pIC50 turn out when `CCc1c(N2CCN(C(=O)C(C)O)CC2)c(=O)n2nc(C3=CCOCC3)nc2n1CC(=O)Nc1ccc(C(F)(F)F)cc1Cl` (stereo not drawn) [Example 12, N-(2-Chloro-4-(trifluoromethyl)phenyl)-2-(2-(3,6-dihydro-2H-pyran-4-yl)-5-ethyl-6-(4-(2-hydroxypropanoyl)piperazin-1-yl)-7-oxo-[1,2,4]triazolo[1,5-a]pyrimidin-4(7H)-yl)acetamide] was run?
**A.** 6.00 to 7.00

**Q.** How did the pIC50 turn out when `CCc1c(N2CCN(C(=O)C3CC3)CC2)c(=O)n2nc(C3=CCOCC3)nc2n1CC(=O)Nc1ccc(C(F)(F)F)cc1Cl` [Example 13, N-(2-Chloro-4-(trifluoromethyl)phenyl)-2-(6-(4-(cyclopropanecarbonyl)piperazin-1-yl)-2-(3,6-dihydro-2H-pyran-4-yl)-5-ethyl-7-oxo-[1,2,4]triazolo[1,5-a]pyrimidin-4(7H)-yl)acetamide] was run?
**A.** 6.00 to 7.00

**Q.** How did the pIC50 turn out when `CCNC(=O)N1CCN(c2c(CC)n(CC(=O)Nc3ccc(C(F)(F)F)cc3Cl)c3nc(C4=CCOCC4)nn3c2=O)CC1` [Example 15, 4-(4-(2-((2-Chloro-4-(trifluoromethyl)phenyl)amino)-2-oxoethyl)-2-(3,6-dihydro-2H-pyran-4-yl)-5-ethyl-7-oxo-4,7-dihydro-[1,2,4]triazolo[1,5-a]pyrimidin-6-yl)-N-ethylpiperazine-1-carboxamide] was run?
**A.** 6.00 to 7.00

**Q.** How did the pIC50 turn out when `CCc1c(N2CCN(C(=O)CCO)CC2)c(=O)n2nc(C3=CCOCC3)nc2n1CC(=O)Nc1ccc(C(F)(F)F)cc1Cl` [Example 16, N-(2-Chloro-4-(trifluoromethyl)phenyl)-2-(2-(3,6-dihydro-2H-pyran-4-yl)-5-ethyl-6-(4-(3-hydroxypropanoyl)piperazin-1-yl)-7-oxo-[1,2,4]triazolo[1,5-a]pyrimidin-4(7H)-yl)acetamide] was run?
**A.** 6.00 to 7.00

**Q.** With `CCc1c(N2CCN(/C(=N\O)c3ncccc3F)CC2)c(=O)n2nc(C3=CCOCC3)nc2n1CC(=O)Nc1ccc(C(F)(F)F)cc1Cl` [Example 21, (Z)—N-(2-Chloro-4-(trifluoromethyl)phenyl)-2-(2-(3,6-dihydro-2H-pyran-4-yl)-5-ethyl-6-(4-((3-fluoropyridin-2-yl) (hydroxyimino)methyl)piperazin-1-yl)-7-oxo-[1,2,4]triazolo[1,5-a]pyrimidin-4(7H)-yl)acetamide] as the compound, how does the pIC50 read?
**A.** < 6.00

**Q.** With `CCc1c(N2CCN(C(=O)NCC3CC3)CC2)c(=O)n2nc(C3=CCOCC3)nc2n1CC(=O)Nc1ccc(C(F)(F)F)cc1Cl` [Example 24, 4-(4-(2-((2-Chloro-4-(trifluoromethyl)phenyl)amino)-2-oxoethyl)-2-(3,6-dihydro-2H-pyran-4-yl)-5-ethyl-7-oxo-4,7-dihydro-[1,2,4]triazolo[1,5-a]pyrimidin-6-yl)-N-(cyclopropylmethyl)piperazine-1-carboxamide] as the compound, how does the pIC50 read?
**A.** 6.00 to 7.00

**Q.** `CCc1c(N2CCN(C(=O)Nc3c(C(F)(F)F)ncn3Cc3ccc(OC)cc3)CC2)c(=O)n2nc(C3=CCOCC3)nc2n1CC(=O)Nc1ccc(C(F)(F)F)cc1Cl` [Example 26, 4-(4-(2-((2-Chloro-4-(trifluoromethyl)phenyl)amino)-2-oxoethyl)-2-(3,6-dihydro-2H-pyran-4-yl)-5-ethyl-7-oxo-4,7-dihydro-[1,2,4]triazolo[1,5-a]pyrimidin-6-yl)-N-(1-(4-methoxybenzyl)-4-(trifluoromethyl)-1H-imidazol-5-yl)piperazine-1-carboxamide] was tested. Which pIC50 did it give?
**A.** < 6.00

**Q.** With `CCNS(=O)(=O)N1CCN(c2c(CC)n(CC(=O)Nc3ccc(C(F)(F)F)cc3Cl)c3nc(C4=CCOCC4)nn3c2=O)CC1` [Example 33, N-(2-Chloro-4-(trifluoromethyl)phenyl)-2-(2-(3,6-dihydro-2H-pyran-4-yl)-5-ethyl-6-(4-(N-ethylsulfamoyl)piperazin-1-yl)-7-oxo-[1,2,4]triazolo[1,5-a]pyrimidin-4(7H)-yl)acetamide] as the compound, how does the pIC50 read?
**A.** 6.00 to 7.00

**Q.** `CCc1c(N2CCN(C(=O)NS(=O)(=O)C3CC3)CC2)c(=O)n2nc(C3=CCOCC3)nc2n1CC(=O)Nc1ccc(C(F)(F)F)cc1Cl` [Example 34, 4-(4-(2-((2-Chloro-4-(trifluoromethyl)phenyl)amino)-2-oxoethyl)-2-(3,6-dihydro-2H-pyran-4-yl)-5-ethyl-7-oxo-4,7-dihydro-[1,2,4]triazolo[1,5-a]pyrimidin-6-yl)-N-(cyclopropylsulfonyl)piperazine-1-carboxamide] was tested. Which pIC50 did it give?
**A.** 6.00 to 7.00

**Q.** How did the pIC50 turn out when `CCc1c(N2CCN(C(=O)CN)CC2)c(=O)n2nc(C3=CCOCC3)nc2n1CC(=O)Nc1ccc(C(F)(F)F)cc1Cl` [Example 38, N-(2-Chloro-4-(trifluoromethyl)phenyl)-2-(2-(3,6-dihydro-2H-pyran-4-yl)-5-ethyl-6-(4-glycylpiperazin-1-yl)-7-oxo-[1,2,4]triazolo[1,5-a]pyrimidin-4(7H)-yl)acetamide] was run?
**A.** 6.00 to 7.00

**Q.** With `CCc1c(N2CCN(C(=O)CNS(=O)(=O)CC)CC2)c(=O)n2nc(C3=CCOCC3)nc2n1CC(=O)Nc1ccc(C(F)(F)F)cc1Cl` [Example 39, N-(2-Chloro-4-(trifluoromethyl)phenyl)-2-(2-(3,6-dihydro-2H-pyran-4-yl)-5-ethyl-6-(4-((ethylsulfonyl)glycyl)piperazin-1-yl)-7-oxo-[1,2,4]triazolo[1,5-a]pyrimidin-4(7H)-yl)acetamide] as the compound, how does the pIC50 read?
**A.** 6.00 to 7.00

**Q.** `CCOC(=O)N1CCN(c2c(CC)n(CC(=O)Nc3ccc(C(F)(F)F)cc3Cl)c3nc(C4=CCOCC4)nn3c2=O)CC1` [Example 40, Ethyl 4-(4-(2-((2-chloro-4-(trifluoromethyl)phenyl)amino)-2-oxoethyl)-2-(3,6-dihydro-2H-pyran-4-yl)-5-ethyl-7-oxo-4,7-dihydro-[1,2,4]triazolo[1,5-a]pyrimidin-6-yl)piperazine-1-carboxylate] was tested. Which pIC50 did it give?
**A.** < 6.00

**Q.** How did the pIC50 turn out when `CCc1c(N2CCN(C(=O)c3cn(C)c(=O)n(C)c3=O)CC2)c(=O)n2nc(C3=CCOCC3)nc2n1CC(=O)Nc1ccc(C(F)(F)F)cc1Cl` [Example 51, N-(2-Chloro-4-(trifluoromethyl)phenyl)-2-(2-(3,6-dihydro-2H-pyran-4-yl)-6-(4-(1,3-dimethyl-2,4-dioxo-1,2,3,4-tetrahydropyrimidine-5-carbonyl)piperazin-1-yl)-5-ethyl-7-oxo-[1,2,4]triazolo[1,5-a]pyrimidin-4(7H)-yl)acetamide] was run?
**A.** < 6.00

**Q.** How did the pIC50 turn out when `CCc1c(N2CCN(C(=O)c3cnc4ncnn4c3O)CC2)c(=O)n2nc(C3=CCOCC3)nc2n1CC(=O)Nc1ccc(C(F)(F)F)cc1Cl` [Example 52, N-(2-Chloro-4-(trifluoromethyl)phenyl)-2-(2-(3,6-dihydro-2H-pyran-4-yl)-5-ethyl-6-(4-(7-hydroxy-[1,2,4]triazolo[1,5-a]pyrimidine-6-carbonyl)piperazin-1-yl)-7-oxo-[1,2,4]triazolo[1,5-a]pyrimidin-4(7H)-yl)acetamide] was run?
**A.** < 6.00
